Laboratory results reported in paper PMC5773487, “Harnessing insulin- and leptin-induced oxidation of PTP1B for therapeutic development” (Nature Communications, 2018).

Legend:
PTP1B-OX [1] = molecular target: T1, PTP1B-OX (Homo sapiens, UniProt P18031); test: reduction and reactivation of reversibly oxidized PTP1B by TCEP, DiFMUP substrate; assay type: biochemical; settings: for restoration of PTP1B-OX activity by TCEP in LOPAC primary screen: compound 10 μM; for IC50: wild-type PTP1B-OX, reactivation by TCEP, DiFMUP substrate, read-out: IC50 against PTP1B-OX
T1 construct: Purified PTP1B (1–321) (100 nM) was mixed with increasing concentrations of H2O2; 6xHis (C); made in house; host or cells: E. coli BL21 (DE3)-RIL
T1 sequence (P18031 1-321): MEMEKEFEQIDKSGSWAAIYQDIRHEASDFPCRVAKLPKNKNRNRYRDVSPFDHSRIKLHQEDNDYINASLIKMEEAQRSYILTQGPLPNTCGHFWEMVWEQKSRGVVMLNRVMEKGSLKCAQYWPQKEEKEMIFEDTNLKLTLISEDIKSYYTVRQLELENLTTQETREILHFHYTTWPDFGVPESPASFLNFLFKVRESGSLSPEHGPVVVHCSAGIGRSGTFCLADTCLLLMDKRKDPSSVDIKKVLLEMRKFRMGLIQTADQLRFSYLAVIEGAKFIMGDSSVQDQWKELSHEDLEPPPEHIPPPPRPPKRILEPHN
Method: Therefore, our approach has been to adapt this assay, which we used to screen for conformation-sensor scFvs[17], now to screen for small molecules that act through a similar mechanism. Our primary screening assay tested the ability of small molecule inhibitors to antagonize the reduction and reactivation of the oxidized conformation of PTP1B, similar to that of scFv45 (Fig. 4a).
(§1) Purified PTP1B (1–321) (100 nM) was mixed with increasing concentrations of H2O2 (0.05–100 mM) in phosphatase assay buffer (50 mM HEPES, pH 7.0, 100 mM NaCl, 0.1% BSA) at room temperature for 5 min. From this reaction mixture PTP1B (10 nM) was used to monitor phosphatase activity using DiFMUP as the substrate, with or without 5 mM TCEP. Activity of each sample was compared to that of the untreated PTP1B in the presence of 5 mM TCEP.
To screen the LOPAC library against PTP1B-OX, 0.5 μl of 1 mM compound in 100% DMSO was added to 384-well plates, resulting in a final compound concentration of 10 μM for the primary screen. Recombinant PTP1B (100 nM) was reversibly oxidized and inactivated with H2O2 (4 mM). The phosphatase activity was restored by a quick buffer exchange and addition of reducing agent (TCEP). PTP1B-OX was incubated with LOPAC compounds (10 μM) in the assay buffer (50 mM HEPES pH 7.0, 100 mM NaCl, 0.005% Tween, 2 mM EDTA) and the effect of individual compound on stabilizing the reversibly oxidized conformation was assessed by the phosphatase assay under reducing conditions using DiFMUP as substrate. scFv45 was used as positive control.

reduced PTP1B = molecular target: T2, reduced PTP1B (Homo sapiens, UniProt P18031); test: phosphatase activity of reduced PTP1B, DiFMUP substrate; assay type: biochemical
T2 construct: Purified PTP1B (1–321) (100 nM) was mixed with increasing concentrations of H2O2; 6xHis (C); made in house; host or cells: E. coli BL21 (DE3)-RIL
T2 sequence (P18031 1-321): T1 sequence (P18031 1-321)
Method: Fig. 4 Identification and characterization of small molecules that mimic the effect of scFv45. a Reversibly oxidized PTP1B (PTP1B-OX) was generated by incubation with H2O2 in vitro, desalted, then assayed (20 nM) in the presence and absence of individual members of the LOPAC library. In the right panel, each dot represents an activity measurement. […] Data are representative of at least two independent experiments (n = 2). b Increasing concentration of sanguinarine was tested against reduced (circle) and oxidized (square) forms of PTP1B, using DiFMUP as substrate. c Increasing concentration of levamisole was tested against reduced (circle) and oxidized (square) PTP1B, using DiFMUP as substrate. d PTP1B-OX (200 nM) was incubated with sanguinarine (25 µM) for 5 min and the complex was diluted 100-fold and the activity was monitored for 120 min continuously. e PTP1B-OX (200 nM) was incubated with levamisole (40 µM) for 5 min and the complex was diluted 100-fold and the activity was monitored for 120 min continuously. f Increasing concentration of chelerythrine, an analog of sanguinarine, was tested against reduced (circle) and oxidized (square) forms of PTP1B, using DiFMUP as substrate. […] Individual data points represent the mean obtained from three separate experiments (n = 3; b–g)
as §1

PTP1B-OX [2] = molecular target: T1, PTP1B-OX; test: reduction and reactivation of reversibly oxidized PTP1B by TCEP, DiFMUP substrate; assay type: biochemical; settings: complex diluted 100-fold, activity monitored 120 min
PKC = settings: cited from earlier work

Structure (SMILES) | restoration of PTP1B-OX activity by TCEP in LOPAC primary screen (PTP1B-OX [1]) | IC50 (PTP1B-OX [1]) [µM] | inhibition of the reduced form of PTP1B (reduced PTP1B) | reversibility of PTP1B-OX inhibition (PTP1B-OX [2]) | inhibition of PKC (PKC)
c1ccc([C@H]2CN3CCSC3=N2)cc1 [levamisole] | only able to restore enzymatic activity partially | 36 | no effect | reversible | –
C[n+]1cc2c3c(ccc2c2ccc4cc5c(cc4c21)OCO5)OCO3 [sanguinarine] | only able to restore enzymatic activity partially | 25 | no effect | reversible | not an inhibitor
